Data from PubChem BioAssay (NCI).
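These data come from cells grown in 96-well plates and exposed to compound for 48 hours at five concentrations. Definition used: TGI = concentration required for complete inhibition of growth.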 Where a SMILES comes first, the peptide text is derived from it. [ ]: non-standard residue; d: D form. pGlu = O=C1CC[CH](C(=O)O)N1

Tests used:
Assay in all cases: NCI-60 cell line screen, 48 h
[1] = test system: A549 NSCLC
[2] = test system: M14 melanoma
[3] = test system: U251 CNS
[4] = test system: MOLT-4 leukemia
[5] = test system: HS 578T breast
[6] = test system: A498 renal
[7] = test system: HOP-92 NSCLC
[8] = test system: SW-620 colon
[9] = test system: HOP-62 NSCLC
[10] = test system: ACHN renal
[11] = test system: BT-549 breast
[12] = test system: SF-295 CNS
[13] = test system: SNB-75 CNS

SMILES	TGI [1] [µM]	TGI [2] [µM]	TGI [3] [µM]	TGI [4] [µM]	TGI [5] [µM]	TGI [6] [µM]	TGI [7] [µM]	TGI [8] [µM]	TGI [9] [µM]	TGI [10] [µM]	TGI [11] [µM]	TGI [12] [µM]	TGI [13] [µM]
Cc1ncn(-c2ccccc2O)c1C	> 100	> 100	> 100	> 100	> 100	> 100	> 100	> 100	> 100	> 100	> 100	> 100	> 100
NS(=O)(=O)c1ccc(NC(=O)N/N=C/c2ccccc2[N+](=O)[O-])cc1	> 100	85.3	> 100	> 100	> 100	> 100	> 100	> 100	> 100	> 100	> 100	> 100	> 100
Nc1ncnc2c1ncn2[C@H]1C=C[C@@H](NO)C1	> 100	> 100	> 100	> 100	> 100	> 100	> 100	> 100	> 100	> 100	> 100	> 100	> 100
S=C(NCc1ccccc1)Nc1sc(=NCc2ccccc2)nc2sc3c(c12)CCN(N1CCc2c(sc4nc(=NCc5ccccc5)sc(NC(=S)NCc5ccccc5)c24)C1)C3	> 62.9	> 65.4	> 47.5	> 96.1	> 100	> 67.6	> 100	> 72.5	> 100	> 96.4	> 85.6	> 100	> 64.9
C#C[C@]1(O)CC[C@H]2[C@@H]3CCC4=C/C(=N\OCCN5CCCCC5)CC[C@]4(C)[C@H]3CC[C@@]21C	22.7	10.2	33.6	11.6	8.86	20.5	50.8	29.9	24.4	22.5	17.6	10.6	17.1
Cc1ccc2nc3ccccc3c(C3C4C(=O)N(c5ccc(F)cc5)C(=O)C4ON3C(C(N)=O)c3ccccc3)c2c1 (configuration not stated)	> 100	> 100	> 100	> 100	> 100	> 100	> 100	> 100	> 100	> 100	> 100	> 100	> 100
COC(NC(=O)Nc1ccc(C)cc1)(C(F)(F)F)C(F)(F)F	> 100	> 100	45	48.6	> 100	90.1	93.3	> 100	> 100	> 100	83.5	90.7	> 100
CCCCSC1=N/C(=C\c2ccccc2O)C(=O)N1	> 100	> 100	> 100	> 100	> 100	> 100	> 100	> 100	> 100	> 100	> 100	> 100	> 100
NCC(=O)Nc1ccccc1	> 100	> 100	> 100	> 100	> 100	> 100	> 100	> 100	> 100	> 100	> 100	> 100	> 100
C[C@H](Nc1nc(N)c(N=O)c(=O)n1C)C(=O)O	> 10	> 10	> 10	> 10	> 10	> 10	> 10	> 10	> 10	> 10	> 10	> 10	> 10
Cc1cn(C2CC(n3cc(Cn4ccc(=O)[nH]c4=O)nn3)C(CO)O2)c(=O)[nH]c1=O (configuration not stated)	> 100	> 100	> 100	> 100	> 100	> 100	> 100	> 100	> 100	> 100	> 100	> 100	> 100
Cc1ccc(S(=O)(=O)n2cc(C=O)c(-c3cn(S(=O)(=O)c4ccc(C)cc4)cc3-c3cn(S(=O)(=O)c4ccc(C)cc4)cc3C=O)c2)cc1	> 100	> 100	> 100	93.3	> 100	> 100	> 100	> 100	> 100		> 100	> 100	> 100
CC1OC(OC2C(O)COC(OC3C(C)OC(OC4C(OC(=O)[C@]56CCC(C)(C)C[C@@H]5C5=CCC7[C@@]8(C)C[C@H](O)[C@H](OC9OC(CO)C(O)C(O)C9O)[C@@](C)(CO)[C@@H]8CC[C@@]7(C)[C@]5(C)CC6)OCC(O)C4O)C(O)C3O)C2O)C(O)C(O)C1O (some centres not stated)	43.6	41.9	54.9	48.7	60.4	36	45.2	46.5	37.7	44.3	45.7	48	39
C(=N\c1nc2cc3sc(/N=C/c4ccccc4)nc3cc2s1)/c1ccccc1	> 100	> 100	> 100	> 80.9	97.4	> 100	> 100	> 100	> 100	> 100	> 100	> 100	> 100
COc1ccc(/C=N\N(C)Cc2cccc3ccsc23)cc1	> 100	> 100	> 100	> 100	> 100	> 100	> 100	> 100	> 100	> 100	> 100	> 100	> 100
CCOP(=O)(OCC)Oc1c(OC)c2[nH]c(C(=O)OC)cc2c2c(C(=O)O)c[nH]c12	> 100	> 100	> 100	> 100	> 100	> 100	> 100	> 100	> 100	> 100	> 100	> 100	> 100
ClCc1nc2ccccc2[nH]1	> 100	> 100	> 100	> 100	> 100	> 100	> 100	> 100	> 100	> 100	> 100	> 100	> 100

SMILES	TGI [1] [µM]	TGI [2] [µM]	TGI [3] [µM]	TGI [4] [µM]	TGI [5] [µM]	TGI [6] [µM]	TGI [7] [µM]	TGI [8] [µM]	TGI [9] [µM]	TGI [10] [µM]	TGI [11] [µM]	TGI [12] [µM]	TGI [13] [µM]
Cc1nc(-c2ccccc2)cn2c1nc1ccccc12	34.8	> 82.8	36.3	> 100	> 87.5	23.5	62.6	99.1	49.6	49.4	38.9	> 65.8	> 52.2
CCOC(=O)c1c(O)cn2c1[nH]c1cccc3cccc2c31	> 100	> 100	> 100	> 100	> 100	> 100	> 100	> 100	> 100	> 100	> 100	> 100	> 100
COC(=O)C(Cc1c[nH]c2ccccc12)NC(=O)C(Cc1cnc[nH]1)NC(=O)C1CCC(=O)N1C(=O)OCc1ccccc1 (configuration not stated)	> 100	> 100	> 100	> 100	> 100	68.3	> 100	> 100	> 100	> 100	> 100		> 100
O=C(Nc1ccccc1)N(CCN(Cc1ccccc1)C(=O)Nc1ccccc1)CCN(Nc1ccccc1)C(=O)Nc1ccccc1	> 100	> 100	> 100	> 100	> 100	> 100	> 100	> 100	> 100	> 100	> 100	> 100	> 100
O=c1[nH]c(Nc2ccc(Br)c(C(F)(F)F)c2)nc2nc[nH]c12	> 100	> 100	> 100	88.5	45.6	> 100	> 100	> 100	> 100	> 100	> 100	> 100	> 100
CN(O)C(=O)CCC(NC(=O)CCC(N)C(=O)O)C(=O)NCC(=O)O (configuration not stated)	> 100	> 100	> 100	> 100	> 100	> 100	> 100	> 100	> 100	> 100	> 100	> 100	> 100
COc1ccc(/[N+]([O-])=C/c2ccc(OC(=S)S)c(OC)c2)cc1	> 100	> 100	> 100	> 100	> 100	> 100	81	> 100	> 100	> 100	79.7	> 100	51.1
NC1=Nc2ccccc2Sc2nncn21	> 100	> 100	> 100	> 100	> 100	> 100	> 100	> 100	> 100	> 100	> 100	> 100	> 100
CC(NC(=O)C1CCC(=O)N1)C(=O)N1CCCC1C(N)=O (stereo not drawn) ([pGlu]-Ala-Pro-NH2; configuration not given here)	> 100	> 100	> 100	> 100	> 100	> 100	> 100	> 100	> 100	> 100	> 100	> 100	> 100
CCOC(=O)CNC(=O)C(CCC(=O)N(C)O)NC(=O)CCC(N)C(=O)O (configuration not stated)	> 100	> 100	> 100	> 100	> 100	> 100	> 100	> 100	> 100	> 100	> 100	> 100	> 100
C=C1C(C(=O)OC)[C@H]1C(=O)OC (some centres not stated)	> 100	> 100	> 100	> 100	> 100	> 100	> 100	> 100	> 100	> 100	> 100	> 100	> 100
COc1c2c(c3c(c1OC)c(=O)c1ccccc1n3C)OCO2	> 100	> 100	> 100	> 100	> 100	> 100	> 100	> 100	> 100	> 100	> 100	> 100	> 100
Cc1c(NC(=S)Nc2ccc([N+](=O)[O-])cc2)c(=O)n(-c2ccccc2)n1C	> 100	> 100	> 100	> 100	> 100	> 100	> 100	> 100	> 100	> 100	> 100	> 100	> 100
O=c1[nH]c(NCc2cccnc2)nc2nc[nH]c12	> 100	> 100	> 100	> 100	> 100	> 100	> 100	> 100	> 100	> 100	> 100	> 100	> 100
COc1ccc(C2CC(c3c(O)ccc4ccccc34)=NN2)cc1OC (configuration not stated)		17.3	11	5.44	7.43	43.6	24.7		17.5	4.82	16.1	17.6	12.2
CC(C)(C)c1cc(/C=C(\C#N)C2=NCCO2)cc(C(C)(C)C)c1O	19.7	17	12	21.1	34.1	16.7	15.2	18.5	> 38.9	14.5	12.4	9.8	7.47
CN(C)Cc1cc(Cl)c(O)c(CN(C)C)c1	> 100	> 100	> 100		> 100	> 100	> 100	> 100	> 100	> 100	> 100	> 100	> 100
